From ChEMBL document CHEMBL1201862, “PubChem BioAssay data set” (2004)
Blank lines part the entries; values can stand above or below the compound they belong to. Calls of active or inactive are those of the source.

Legend:
[1] = biological target: Cytochrome P450 2C19 (Homo sapiens, UniProt P33261); assay: Cytochrome panel assay with activity outcomes. Panel member name: p450-cyp2c19 Compounds with AC50 equal or less than 10 uM are considered active; format: functional
[2] = biological target: Cytochrome P450 2D6 (Homo sapiens, UniProt P10635);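 note: CYP2D6 member of a cytochrome P450 panel assay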
Sequence of Cytochrome P450 2D6 (P10635 whole entry): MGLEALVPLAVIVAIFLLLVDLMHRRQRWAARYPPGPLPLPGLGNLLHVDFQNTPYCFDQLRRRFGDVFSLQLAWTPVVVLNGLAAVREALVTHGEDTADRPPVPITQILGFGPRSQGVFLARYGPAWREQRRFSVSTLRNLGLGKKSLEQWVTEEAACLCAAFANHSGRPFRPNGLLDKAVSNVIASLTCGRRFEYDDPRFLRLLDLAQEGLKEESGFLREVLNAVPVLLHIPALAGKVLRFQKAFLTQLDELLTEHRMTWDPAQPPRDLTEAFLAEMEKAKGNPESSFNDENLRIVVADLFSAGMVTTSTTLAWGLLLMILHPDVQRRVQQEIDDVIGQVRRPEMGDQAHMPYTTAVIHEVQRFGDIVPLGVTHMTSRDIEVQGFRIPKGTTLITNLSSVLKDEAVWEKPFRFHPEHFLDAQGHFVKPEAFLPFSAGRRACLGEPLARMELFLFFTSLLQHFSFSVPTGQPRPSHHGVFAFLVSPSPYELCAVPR

[3] = biological target: Lysine-specific demethylase 4A (Homo sapiens, UniProt O75164); assay: JMJD2A histone demethylase inhibitors, dose response, selectivity assay for GASC-1 inhibitor project, biochemical, DELFIA europium, cherry-picked samples (AID 488840)
Sequence of Lysine-specific demethylase 4A (O75164 whole entry): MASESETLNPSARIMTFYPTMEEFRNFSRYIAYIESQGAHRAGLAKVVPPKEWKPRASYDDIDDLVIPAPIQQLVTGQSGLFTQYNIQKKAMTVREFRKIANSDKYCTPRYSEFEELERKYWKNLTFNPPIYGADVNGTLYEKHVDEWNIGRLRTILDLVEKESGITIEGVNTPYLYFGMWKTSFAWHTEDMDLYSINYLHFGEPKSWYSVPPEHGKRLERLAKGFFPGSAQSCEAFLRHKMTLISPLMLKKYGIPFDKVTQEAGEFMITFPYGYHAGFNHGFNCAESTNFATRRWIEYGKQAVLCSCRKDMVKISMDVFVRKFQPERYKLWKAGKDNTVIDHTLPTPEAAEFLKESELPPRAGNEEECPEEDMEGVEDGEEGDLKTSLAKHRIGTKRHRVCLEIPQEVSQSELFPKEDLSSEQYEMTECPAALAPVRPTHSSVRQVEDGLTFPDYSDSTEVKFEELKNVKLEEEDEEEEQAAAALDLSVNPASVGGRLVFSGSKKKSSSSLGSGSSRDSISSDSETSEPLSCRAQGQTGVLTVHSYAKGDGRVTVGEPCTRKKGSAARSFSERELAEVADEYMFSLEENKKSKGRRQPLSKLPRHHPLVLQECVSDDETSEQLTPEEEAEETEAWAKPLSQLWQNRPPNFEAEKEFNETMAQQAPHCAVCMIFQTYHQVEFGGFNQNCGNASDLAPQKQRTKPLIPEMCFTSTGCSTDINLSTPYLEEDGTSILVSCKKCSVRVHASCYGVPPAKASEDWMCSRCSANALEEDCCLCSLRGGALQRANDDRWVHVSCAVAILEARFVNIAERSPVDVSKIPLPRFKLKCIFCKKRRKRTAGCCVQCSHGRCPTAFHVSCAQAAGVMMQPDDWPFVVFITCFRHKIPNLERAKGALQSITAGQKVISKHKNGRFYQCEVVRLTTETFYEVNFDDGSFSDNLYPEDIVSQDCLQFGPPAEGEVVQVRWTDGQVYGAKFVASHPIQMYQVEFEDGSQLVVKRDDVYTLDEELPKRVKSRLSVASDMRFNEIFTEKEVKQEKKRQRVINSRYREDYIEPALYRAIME

[4] = biological target: Lysine-specific demethylase 4C (Homo sapiens, UniProt Q9H3R0); assay: GASC-1 (JMJD2C) histone demethylase inhibitors, dose response, biochemical, DELFIA europium, cherry-picked samples (AID 488835); format: functional
Sequence of Lysine-specific demethylase 4C (Q9H3R0 whole entry): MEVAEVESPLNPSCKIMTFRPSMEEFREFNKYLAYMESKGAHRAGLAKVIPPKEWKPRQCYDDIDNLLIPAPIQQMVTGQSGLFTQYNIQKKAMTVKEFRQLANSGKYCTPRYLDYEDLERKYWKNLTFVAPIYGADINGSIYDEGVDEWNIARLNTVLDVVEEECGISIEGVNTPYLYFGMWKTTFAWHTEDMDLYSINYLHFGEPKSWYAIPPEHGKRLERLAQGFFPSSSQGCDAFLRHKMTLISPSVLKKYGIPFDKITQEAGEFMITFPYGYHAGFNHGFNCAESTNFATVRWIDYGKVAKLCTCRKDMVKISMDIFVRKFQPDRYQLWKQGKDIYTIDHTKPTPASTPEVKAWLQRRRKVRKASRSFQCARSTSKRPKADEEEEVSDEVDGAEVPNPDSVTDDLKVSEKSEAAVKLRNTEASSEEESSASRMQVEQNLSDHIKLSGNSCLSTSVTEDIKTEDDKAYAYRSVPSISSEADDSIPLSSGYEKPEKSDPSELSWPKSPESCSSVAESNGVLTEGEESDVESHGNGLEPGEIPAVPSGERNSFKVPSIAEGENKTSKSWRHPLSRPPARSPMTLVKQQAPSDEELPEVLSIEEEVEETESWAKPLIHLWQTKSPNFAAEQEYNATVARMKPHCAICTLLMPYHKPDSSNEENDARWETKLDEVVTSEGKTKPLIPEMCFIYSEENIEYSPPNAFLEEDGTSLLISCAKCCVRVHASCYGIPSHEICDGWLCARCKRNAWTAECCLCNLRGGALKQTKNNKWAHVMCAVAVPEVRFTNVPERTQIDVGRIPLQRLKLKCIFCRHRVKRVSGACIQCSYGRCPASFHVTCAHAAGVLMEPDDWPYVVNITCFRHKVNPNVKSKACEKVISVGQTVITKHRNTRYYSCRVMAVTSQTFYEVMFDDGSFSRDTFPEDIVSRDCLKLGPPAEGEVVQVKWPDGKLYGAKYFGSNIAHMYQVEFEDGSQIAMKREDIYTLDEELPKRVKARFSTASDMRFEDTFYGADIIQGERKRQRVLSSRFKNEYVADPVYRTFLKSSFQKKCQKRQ

[5] = biological target: T1, Coagulation factor XII (Homo sapiens, UniProt P00748); assay: FXIIa inhibitor potency, concentration-response, biochemical (AID 716); format: functional
T1 sequence (P00748 whole entry): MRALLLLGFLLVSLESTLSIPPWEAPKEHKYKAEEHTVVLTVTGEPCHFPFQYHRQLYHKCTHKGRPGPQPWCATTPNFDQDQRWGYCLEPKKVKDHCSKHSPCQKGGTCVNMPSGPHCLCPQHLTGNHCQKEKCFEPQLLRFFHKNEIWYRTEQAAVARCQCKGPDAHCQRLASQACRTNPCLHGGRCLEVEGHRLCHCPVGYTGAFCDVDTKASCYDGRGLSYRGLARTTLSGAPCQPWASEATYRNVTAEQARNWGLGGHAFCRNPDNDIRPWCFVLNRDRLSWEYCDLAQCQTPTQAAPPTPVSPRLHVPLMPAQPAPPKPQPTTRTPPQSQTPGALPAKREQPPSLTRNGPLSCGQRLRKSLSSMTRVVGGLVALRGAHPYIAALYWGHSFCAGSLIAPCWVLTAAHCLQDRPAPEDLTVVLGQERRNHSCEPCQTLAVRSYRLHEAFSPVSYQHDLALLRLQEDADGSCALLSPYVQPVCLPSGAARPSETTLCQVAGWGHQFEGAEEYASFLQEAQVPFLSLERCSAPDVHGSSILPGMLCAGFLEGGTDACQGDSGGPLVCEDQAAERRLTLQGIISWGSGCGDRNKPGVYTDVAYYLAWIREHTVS

[6] = HEp-2 cell cytotoxicity, dose response, cytotoxicity control for RSV inhibitor project, HTS (AID 2410); format: functional; conditions: human respiratory syncytial virus
[7] = biological target: G-protein coupled receptor 55 (Homo sapiens, UniProt Q9Y2T6); assay: GPR55 antagonists blocking LPI-driven arrestin recruitment, primary screen, imaging, U2OS, beta-arrestin-GFP, LPI agonist (AID 2013); format: functional;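 note: antagonist potency measured as reduced agonist-driven arrestin aggregation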
Sequence of G-protein coupled receptor 55 (Q9Y2T6 whole entry): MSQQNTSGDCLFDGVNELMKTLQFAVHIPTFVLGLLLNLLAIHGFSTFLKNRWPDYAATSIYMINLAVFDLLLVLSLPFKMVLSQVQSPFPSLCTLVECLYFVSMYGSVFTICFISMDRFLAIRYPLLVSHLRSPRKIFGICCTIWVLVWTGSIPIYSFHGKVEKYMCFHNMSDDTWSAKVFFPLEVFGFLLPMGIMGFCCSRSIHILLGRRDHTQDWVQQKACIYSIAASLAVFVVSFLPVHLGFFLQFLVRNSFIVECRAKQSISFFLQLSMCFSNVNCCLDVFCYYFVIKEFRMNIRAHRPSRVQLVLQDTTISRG

[8] = biological target: Integrin alpha-L (Mus musculus, UniProt P24063); assay: modulators of CD8 T cell-vesicle binding, dose response, powder samples, mouse 2C CD8+ cells (AID 504565); format: functional
Sequence of Integrin alpha-L (P24063 whole entry): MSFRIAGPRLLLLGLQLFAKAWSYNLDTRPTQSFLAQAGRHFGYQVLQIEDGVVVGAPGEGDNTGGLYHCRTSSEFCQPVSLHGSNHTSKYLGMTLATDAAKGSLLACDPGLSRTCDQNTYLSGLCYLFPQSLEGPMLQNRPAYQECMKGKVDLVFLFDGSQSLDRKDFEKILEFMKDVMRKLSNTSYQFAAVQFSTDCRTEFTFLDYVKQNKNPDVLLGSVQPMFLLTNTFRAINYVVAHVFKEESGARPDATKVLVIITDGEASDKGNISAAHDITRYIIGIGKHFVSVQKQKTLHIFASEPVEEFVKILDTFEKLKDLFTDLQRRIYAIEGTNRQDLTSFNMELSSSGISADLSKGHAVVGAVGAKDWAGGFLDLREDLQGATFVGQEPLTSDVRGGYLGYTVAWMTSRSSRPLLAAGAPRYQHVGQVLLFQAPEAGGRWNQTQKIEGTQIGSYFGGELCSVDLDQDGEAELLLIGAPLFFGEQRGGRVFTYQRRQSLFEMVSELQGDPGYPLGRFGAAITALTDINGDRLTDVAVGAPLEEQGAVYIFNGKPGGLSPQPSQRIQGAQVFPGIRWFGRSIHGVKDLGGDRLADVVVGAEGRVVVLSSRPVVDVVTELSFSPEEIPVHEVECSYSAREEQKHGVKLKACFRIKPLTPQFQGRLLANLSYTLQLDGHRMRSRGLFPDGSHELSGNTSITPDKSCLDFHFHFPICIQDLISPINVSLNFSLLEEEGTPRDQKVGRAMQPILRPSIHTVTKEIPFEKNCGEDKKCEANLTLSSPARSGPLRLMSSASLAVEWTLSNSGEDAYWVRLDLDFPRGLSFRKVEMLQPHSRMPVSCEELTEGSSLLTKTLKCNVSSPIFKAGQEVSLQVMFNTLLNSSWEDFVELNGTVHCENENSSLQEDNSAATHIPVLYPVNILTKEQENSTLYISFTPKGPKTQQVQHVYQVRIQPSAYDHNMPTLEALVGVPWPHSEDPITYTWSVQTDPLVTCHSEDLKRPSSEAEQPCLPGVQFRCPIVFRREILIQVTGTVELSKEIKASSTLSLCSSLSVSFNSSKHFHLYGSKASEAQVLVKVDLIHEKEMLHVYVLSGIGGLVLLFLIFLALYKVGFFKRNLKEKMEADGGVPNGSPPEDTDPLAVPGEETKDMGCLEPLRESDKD

[9] = biological target: CAAX prenyl protease 1 (Saccharomyces cerevisiae S288c, UniProt P47154); assay: Ste24 protease inhibitors, dose response, biochemical, S. cerevisiae, plate reader, cherry-pick (AID 488815)
Sequence of CAAX prenyl protease 1 (P47154 whole entry): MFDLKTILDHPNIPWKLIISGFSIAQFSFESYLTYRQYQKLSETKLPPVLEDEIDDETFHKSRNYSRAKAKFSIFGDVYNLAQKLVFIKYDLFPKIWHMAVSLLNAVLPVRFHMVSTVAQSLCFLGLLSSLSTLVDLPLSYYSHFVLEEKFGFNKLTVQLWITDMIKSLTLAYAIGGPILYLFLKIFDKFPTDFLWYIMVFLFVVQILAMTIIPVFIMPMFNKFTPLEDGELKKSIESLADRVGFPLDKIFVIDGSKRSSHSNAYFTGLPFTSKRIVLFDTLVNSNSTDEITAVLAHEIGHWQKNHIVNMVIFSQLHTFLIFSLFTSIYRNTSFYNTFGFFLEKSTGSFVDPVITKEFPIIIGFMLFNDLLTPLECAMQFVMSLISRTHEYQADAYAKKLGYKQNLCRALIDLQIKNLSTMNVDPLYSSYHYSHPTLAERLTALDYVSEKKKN

Sequence of Cytochrome P450 2C19 (P33261 whole entry): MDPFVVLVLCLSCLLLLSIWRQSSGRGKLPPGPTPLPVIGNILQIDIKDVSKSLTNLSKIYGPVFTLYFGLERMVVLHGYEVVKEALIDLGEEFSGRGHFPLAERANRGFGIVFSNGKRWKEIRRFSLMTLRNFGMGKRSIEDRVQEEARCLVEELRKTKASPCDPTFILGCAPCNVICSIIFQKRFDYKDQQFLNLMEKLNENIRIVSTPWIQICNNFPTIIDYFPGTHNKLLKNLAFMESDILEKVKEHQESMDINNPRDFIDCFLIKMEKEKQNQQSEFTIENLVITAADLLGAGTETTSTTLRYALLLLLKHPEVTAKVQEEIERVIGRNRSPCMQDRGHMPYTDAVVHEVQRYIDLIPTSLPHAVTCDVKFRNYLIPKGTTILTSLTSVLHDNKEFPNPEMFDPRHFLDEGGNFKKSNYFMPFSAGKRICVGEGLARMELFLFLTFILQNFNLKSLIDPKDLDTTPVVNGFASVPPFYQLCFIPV

- AC50 [1]: inconclusive
- AC50 [2]: inconclusive
Compound: CC1=N/C(=C\c2ccc([N+](=O)[O-])cc2)C(=O)N1c1ccc(Cl)cc1

- AC50 [3]: 45.3 µM (active)
- AC50 [4]: 4.26 µM (active)
Compound: Cn1c(=O)c2nc(O)cnc2n(C)c1=S

- IC50 [5]: > 50 µM (inactive)
Compound: O=C1C(c2ccncc2)N(CCC2=CCCCC2)C(=O)CN1C1CCCCC1 (centres undefined)

- IC50 [7]: 4.76 µM (active)
Compound: COc1ccc(-c2csc(Nc3ccc(S(=O)(=O)Nc4cc(OC)nc(OC)n4)cc3)n2)cc1
- CC50 [6]: 15.2 µM (active)

- EC50 [8]: 0.299 µM (active)
Compound: Cc1cc(C)n(C(=O)c2sc3cc(F)ccc3c2Cl)n1

- AC50 [9]: 32.4 µM (active)
Compound: CCN=C(S)NNC(=O)CCn1cc(C)cn1
